In ChEMBL document CHEMBL6092211, “Discovery and evaluation of novel SHIP-1 inhibitors” (Bioorg Med Chem, 2024):

How the values were obtained:
[1] = molecular target: T1, Phosphatidylinositol 3,4,5-trisphosphate 5-phosphatase 1 (Homo sapiens, UniProt Q92835); experiment: Inhibition of human SHIP-1 (397 to 715 residues) catalytic domain expressed in Rosetta DE3 BL21 cells using 1-(1,2-dioctanoylphosphatidyl) inositol-3,4,5-trisphosphate as substrate by malachite green based spectramax microplate reader analysis
T1 sequence (Q92835 whole entry): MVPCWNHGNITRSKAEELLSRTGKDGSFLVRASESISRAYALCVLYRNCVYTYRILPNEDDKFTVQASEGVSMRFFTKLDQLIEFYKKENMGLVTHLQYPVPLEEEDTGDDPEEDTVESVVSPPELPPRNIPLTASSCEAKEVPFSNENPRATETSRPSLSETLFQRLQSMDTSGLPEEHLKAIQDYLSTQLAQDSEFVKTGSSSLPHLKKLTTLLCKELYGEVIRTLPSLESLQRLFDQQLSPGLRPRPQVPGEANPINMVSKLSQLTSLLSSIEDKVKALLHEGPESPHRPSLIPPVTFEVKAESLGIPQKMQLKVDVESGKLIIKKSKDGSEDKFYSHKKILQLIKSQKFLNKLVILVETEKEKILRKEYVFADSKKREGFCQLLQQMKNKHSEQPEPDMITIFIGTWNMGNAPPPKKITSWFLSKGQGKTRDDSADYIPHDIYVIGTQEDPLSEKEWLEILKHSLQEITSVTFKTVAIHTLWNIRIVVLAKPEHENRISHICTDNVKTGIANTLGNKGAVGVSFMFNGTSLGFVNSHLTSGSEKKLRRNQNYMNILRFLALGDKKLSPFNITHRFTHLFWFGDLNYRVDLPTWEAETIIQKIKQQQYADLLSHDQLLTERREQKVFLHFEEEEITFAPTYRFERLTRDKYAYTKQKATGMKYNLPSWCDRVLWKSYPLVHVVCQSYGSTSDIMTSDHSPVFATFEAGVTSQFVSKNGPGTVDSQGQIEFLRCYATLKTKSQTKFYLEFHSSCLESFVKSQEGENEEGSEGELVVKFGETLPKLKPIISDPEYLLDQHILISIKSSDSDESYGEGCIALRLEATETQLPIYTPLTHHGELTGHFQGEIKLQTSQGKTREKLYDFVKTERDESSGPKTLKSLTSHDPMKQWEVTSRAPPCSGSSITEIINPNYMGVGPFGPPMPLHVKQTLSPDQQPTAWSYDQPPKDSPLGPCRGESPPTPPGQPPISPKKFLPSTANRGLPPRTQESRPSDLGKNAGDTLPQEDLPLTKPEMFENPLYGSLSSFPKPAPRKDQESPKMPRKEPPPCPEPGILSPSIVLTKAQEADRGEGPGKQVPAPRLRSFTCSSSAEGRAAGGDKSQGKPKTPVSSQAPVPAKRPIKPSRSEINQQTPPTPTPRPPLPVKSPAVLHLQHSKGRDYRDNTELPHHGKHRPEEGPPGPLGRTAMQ

[2] = molecular target: T1, Phosphatidylinositol 3,4,5-trisphosphate 5-phosphatase 1; experiment: Inhibition of SHIP-1 (unknown origin) using PtdIns(3,4,5)P3 as substrate by malachite green solution based […] analysis
[3] = molecular target: T1, Phosphatidylinositol 3,4,5-trisphosphate 5-phosphatase 1; experiment: Inhibition of recombinant SHIP-1 (unknown origin) using PtdIns(3,4,5)P3 as substrate incubated for 30 mins by malachite green solution based analysis
[4] = molecular target: T1, Phosphatidylinositol 3,4,5-trisphosphate 5-phosphatase 1; experiment: Competitive inhibition of human SHIP-1 (397 to 715 residues) catalytic domain expressed in Rosetta DE3 BL21 cells assessed as inhibition constant by Lineweaver-Burk plot analysis; format: cell-based
HMC3 [5] = experiment: cells; settings: Homo sapiens, HMC3, 48 h
[6] = Cytotoxicity against human HMC3 cells assessed as cell count incubated for 48 hrs by Hoechst-33342 staining based analysis; format: toxicity
HMC3 [7] = experiment: cells; settings: Homo sapiens, HMC3, 48 h; remark: listed apart in the source
[8] = molecular target: T2, Phosphatidylinositol 3,4,5-trisphosphate 5-phosphatase 2 (Homo sapiens, UniProt O15357); experiment: Inhibition of recombinant SHIP-2 (unknown origin) using PtdIns(3,4,5)P3 as substrate incubated for 30 mins by malachite green solution based analysis
T2 sequence (O15357 whole entry): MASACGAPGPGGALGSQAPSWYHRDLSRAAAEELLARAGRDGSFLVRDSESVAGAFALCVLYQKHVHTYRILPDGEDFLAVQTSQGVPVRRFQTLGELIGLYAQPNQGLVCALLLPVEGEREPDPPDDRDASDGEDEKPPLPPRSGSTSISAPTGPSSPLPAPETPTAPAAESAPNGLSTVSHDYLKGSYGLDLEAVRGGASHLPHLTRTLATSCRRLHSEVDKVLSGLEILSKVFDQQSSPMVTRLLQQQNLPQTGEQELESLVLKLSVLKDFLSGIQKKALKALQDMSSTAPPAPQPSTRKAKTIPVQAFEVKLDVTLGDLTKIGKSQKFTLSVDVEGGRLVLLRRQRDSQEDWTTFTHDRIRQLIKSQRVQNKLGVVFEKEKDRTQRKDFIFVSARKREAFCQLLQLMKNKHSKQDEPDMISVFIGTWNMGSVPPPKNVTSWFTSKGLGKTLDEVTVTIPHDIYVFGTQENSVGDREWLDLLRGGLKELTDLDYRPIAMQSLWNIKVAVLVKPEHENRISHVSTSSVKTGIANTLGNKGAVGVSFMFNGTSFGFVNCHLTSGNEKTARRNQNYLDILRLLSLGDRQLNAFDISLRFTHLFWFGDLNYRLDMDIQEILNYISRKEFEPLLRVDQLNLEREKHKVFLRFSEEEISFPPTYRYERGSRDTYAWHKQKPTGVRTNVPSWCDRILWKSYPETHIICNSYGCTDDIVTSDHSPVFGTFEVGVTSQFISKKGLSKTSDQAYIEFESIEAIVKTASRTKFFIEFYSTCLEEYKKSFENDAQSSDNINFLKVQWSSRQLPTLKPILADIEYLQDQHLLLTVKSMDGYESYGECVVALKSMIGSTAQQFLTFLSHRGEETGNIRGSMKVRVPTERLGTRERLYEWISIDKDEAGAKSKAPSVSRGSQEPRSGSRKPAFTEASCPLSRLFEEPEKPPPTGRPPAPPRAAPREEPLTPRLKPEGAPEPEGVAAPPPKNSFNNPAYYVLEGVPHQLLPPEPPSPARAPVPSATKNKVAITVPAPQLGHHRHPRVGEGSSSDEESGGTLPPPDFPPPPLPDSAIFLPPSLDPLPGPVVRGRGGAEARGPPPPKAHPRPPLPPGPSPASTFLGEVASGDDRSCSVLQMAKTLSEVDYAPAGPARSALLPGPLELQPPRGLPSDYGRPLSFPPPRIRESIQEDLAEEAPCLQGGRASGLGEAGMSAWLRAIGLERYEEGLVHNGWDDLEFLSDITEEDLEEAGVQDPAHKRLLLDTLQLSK

[9] = molecular target: T1, Phosphatidylinositol 3,4,5-trisphosphate 5-phosphatase 1; experiment: Inhibition of SHIP-1 (unknown origin) by malachite green solution based […] analysis
[10] = molecular target: T2, Phosphatidylinositol 3,4,5-trisphosphate 5-phosphatase 2; experiment: Inhibition of human SHIP-2 (420 to 732 residues) catalytic domain expressed in Rosetta DE3 BL21 cells using -(1,2-dioctanoylphosphatidyflinosito1-3,4,5-trisphosphate as substrate by malachite green based spectramax microplate reader analysis

IC50 [1] [µM] | Compound | also measured
46.6 | Cc1oc(-c2ccccc2Cl)nc1Cn1cccc1C1=NC(c2ccccc2)CO1 (stereo not given) | 
15.4 | N#CC1=C2N=C(N)c3ccccc3N2C2=C(C(=O)CCC2)C1c1cccc(Cl)c1 (stereo not given) | 
 | CC(C)CCC[C@@H](C)[C@H]1CC[C@H]2[C@@H]3CC[C@H]4C[C@H](N)CC[C@]4(C)[C@H]3CC[C@]12C | IC50 [2]: 13.9 µM
 | CSc1ccc2c(c1)c(CCN)c(C)n2Cc1ccccc1Cl | IC50 [3]: 500 µM
65.5 | N#CC1=C2N=C(N)c3ccccc3N2C2=C(C(=O)CCC2)C1c1cccnc1 (stereo not given) | 
6.1 | N#CC1=C2N=C(N)c3ccccc3N2C2=C(C(=O)CCC2)C1c1ccc(-c2ccccc2)cc1 (stereo not given) | Ki [4]: 3.2 µM; EC50 (HMC3 [5]): 20 µM; IC50 at 48 h [6]: 19.9 µM; EC50 (HMC3 [7]): 2000 nM
40.2 | N#CC1=C2N=C(N)c3ccccc3N2C2=C(C(=O)CCC2)C1c1cc2ccccc2s1 (stereo not given) | 
17.7 | CC1(C)CC(=O)C2=C(C1)N1C(=C(C#N)C2c2ccc(-c3ccccc3)cc2)N=C(N)c2ccccc21 (stereo not given) | 
 | O[C@H](c1cc(-c2ccccc2)nc2c1ccc1ccccc12)[C@@H]1CCCCN1 | IC50 [3]: 30 µM; IC50 [8]: 30 µM
 | C[C@@]12CCC[C@H]1[C@@H]1CC[C@H]3C[C@H](N)[C@H](N)C[C@]3(C)[C@H]1CC2 | IC50 [9]: 6 µM
> 40 | N#CC1=C2N=C(N)c3ccccc3N2C2=C(C(=O)CCC2)C1c1nc2ccccc2s1 (stereo not given) | 
39 | N#CC1=C2N=C(N)c3ccccc3N2C2=C(C(=O)CCC2)C1c1ccc(Cl)cc1Cl (stereo not given) | 
86.8 | N#CC1=C2N=C(N)c3ccccc3N2C2=C(C(=O)CC(c3cccs3)C2)C1c1cccnc1 (stereo not given) | IC50 [10]: > 200 µM
> 40 | N#CC1=C2N=C(N)c3ccccc3N2C2=C(C(=O)CCC2)C1c1ccc(F)c(F)c1 (stereo not given) | 
28.2 | N#CC1=C2N=C(N)c3ccccc3N2C2=C(C(=O)CCC2)C1c1cc2ccccc2o1 (stereo not given) | 
36.7 | N#CC1=C2N=C(N)c3ccccc3N2C2=C(C(=O)CCC2)C1c1cccc([N+](=O)[O-])c1 (stereo not given) | 
 | O[C@H](c1cc(C23CC4CC(CC(C4)C2)C3)nc2c(Cl)cc(Cl)cc12)[C@@H]1CCCCN1 | IC50 [3]: 63 µM; IC50 [8]: 35 µM
33.6 | CC(C)c1ccc(C2C(C#N)=C3N=C(O)c4ccccc4N3C3=C2C(=O)CCC3)cc1 (stereo not given) | 
10.2 | CC(C)c1ccc(C2C(C#N)=C3N=C(N)c4ccccc4N3C3=C2C(=O)CC(C)(C)C3)cc1 (stereo not given) | 
 | C[C@@]12CCC[C@H]1[C@@H]1CC[C@H]3C[C@H](N)CC[C@]3(C)[C@H]1CC2 | IC50 [9]: 16 µM
46.7 | CC(=O)C1=C(C)Nc2sc(C(=O)c3ccc(Cl)c(Cl)c3)c(N)c2C1c1cccnc1 (stereo not given) | 
23.4 | N#CC1=C2N=C(N)c3ccccc3N2C2=C(C(=O)CCC2)C1c1cc(Br)ccc1F (stereo not given) | 
13.2 | CC(C)c1ccc(C2C(C#N)=C3N=C(N)c4ccccc4N3C3=C2C(=O)CCC3)cc1 (stereo not given) | 
